#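 Cells were grown in 96-well plates and exposed to each compound for 48 hours at five concentrations; endpoints were interpolated linearly between bracketing concentrations, or set to the highest concentration if not reached. GI50 marks 50% less growth. TGI marks complete inhibition of growth.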
# Tests used:
# Experiment in all cases: growth of human tumour cells (NCI), 48 h
# CAKI-1 renal = test system: CAKI-1 renal
# HOP-62 NSCLC = test system: HOP-62 NSCLC
# IGROV1 ovarian = test system: IGROV1 ovarian
# K-562 leukemia = test system: K-562 leukemia
# KM12 colon = test system: KM12 colon
# OVCAR-3 ovarian = test system: OVCAR-3 ovarian
# SK-MEL-2 melanoma = test system: SK-MEL-2 melanoma
# SK-OV-3 ovarian = test system: SK-OV-3 ovarian
# SW-620 colon = test system: SW-620 colon
# T-47D breast = test system: T-47D breast
Structure (SMILES),GI50 (CAKI-1 renal) [µM],TGI (CAKI-1 renal) [µM],GI50 (HOP-62 NSCLC) [µM],TGI (HOP-62 NSCLC) [µM],GI50 (IGROV1 ovarian) [µM],TGI (IGROV1 ovarian) [µM],GI50 (K-562 leukemia) [µM],TGI (K-562 leukemia) [µM],GI50 (KM12 colon) [µM],TGI (KM12 colon) [µM],GI50 (OVCAR-3 ovarian) [µM],TGI (OVCAR-3 ovarian) [µM],GI50 (SK-MEL-2 melanoma) [µM],TGI (SK-MEL-2 melanoma) [µM],GI50 (SK-OV-3 ovarian) [µM],TGI (SK-OV-3 ovarian) [µM],GI50 (SW-620 colon) [µM],TGI (SW-620 colon) [µM],GI50 (T-47D breast) [µM],TGI (T-47D breast) [µM]
O=C(Nc1ccc(Oc2ccc3nc(NC(=O)c4ccccc4)[nH]c3c2)cc1)Nc1cc(C(F)(F)F)ccc1F,1.09,7.8,0.871,6.65,1.47,> 21.1,0.262,> 7.59,0.244,2,1.04,6.12,0.832,3.63,4.38,16.5,1.27,> 25,0.783,3.17
Cc1cccc(C(=O)/C=C/SC(=NC#N)SCc2ccccc2)c1,13.1,39.3,23.2,45.4,21.4,61.5,22,> 100,31.6,> 100,16.7,89.7,48.5,> 100,> 100,> 100,6.45,> 100,21.6,> 100
CO/N=C(\C)c1cccc(Nc2cc(-c3ccccc3)nc3c(O)cccc23)c1,2.78,13.7,3.47,8.39,2.46,8.29,0.656,> 100,3.92,19.1,2.34,7.12,5.76,> 100,8.62,34.5,4.5,19.6,4.32,26.7
CN(C)CCNC(=O)Cn1cc([N+](=O)[O-])c(=O)c2ccccc21,,> 100,,> 100,,> 100,,> 100,,> 100,,> 100,,> 100,,> 100,,> 100,,> 100
CCOC(=O)C1=C(C)NC2SC(=O)/C(=C\c3ccccc3O)N2C1c1ccccc1 (centres undefined),36.8,> 100,31.4,> 100,25,64.1,26.6,> 100,16.6,43.5,20.4,49.9,22.2,59.3,52.8,> 100,38.5,> 100,16.1,51.7
COC1CCC(O)C(/C=C/[N+](=O)[O-])C1 (centres undefined),,38.4,,19.1,,3.55,,22,,16.9,,22.3,,23.1,,22.6,,> 100,,44.8
c1ccc(-c2cc(C3CO3)c3ccccc3n2)cc1 (centres undefined),,47.9,,67.5,,36.6,,93.1,,33,,33.7,,34.6,,> 100,,71.3,,65.8
CN1CCN(Cc2ccc(NC(=O)c3cncc(C#Cc4cncc5ncccc45)c3)cc2C(F)(F)F)CC1,4.74,16.4,2.53,12,1.16,7.45,,11.4,0.0444,11.7,6.32,19.2,0.542,2.48,2.89,11.3,1.83,10.4,10.9,27.3
Cc1ccc(C)c(NC(=O)NCc2ccc(Cl)cc2)c1,,> 100,,37,,> 100,,98.6,,> 100,,> 100,,> 100,,52.7,,> 100,,> 100
O=C1c2ccccc2C(=Cc2ccccc2)c2ccccc21,1.54,5.49,2.62,10.2,2.35,11.4,0.673,16,1.8,9.81,2.56,9.11,1.78,4.95,2.54,9.05,2.43,13.8,2.68,9.65
CCN1C(=O)NC(=O)C(C)(N2C(=O)c3c(F)c(F)c(F)c(F)c3C2=O)C1=O (centres undefined),1.94,4.86,5.97,18.3,1.9,4.92,1.66,3.71,2.11,4.56,1.71,3.22,3.84,21.6,10.1,24.6,1.82,3.85,3.42,11.9
Cc1cnc(/C=N\NC(N)=S)c2cccc(N)c12,2.51,> 57,2.89,> 100,2.4,> 100,2.82,> 100,4.82,> 100,3.03,> 100,> 29.2,> 100,3.14,> 100,3.78,> 100,2.49,> 100
O=P(NC12CC3CC(CC(C3)C1)C2)(N1CC1)N1CC1,,> 100,,> 100,,> 100,,> 100,,> 100,,> 100,,> 100,,> 100,,> 100,,> 100
COc1ccc(C2=NN(C(=O)c3cc(OC)c(OC)c(OC)c3)C(c3ccc(Cl)cc3)C2)cc1OC (centres undefined),1.14,> 54.1,5.24,32,2.11,40,0.777,> 100,1.77,> 100,0.464,1.71,3.71,63.6,2.89,27.4,1.6,> 100,3.59,> 100

# From PubChem BioAssay (NCI)
